Laboratory results published in US11939379B2 (The Regents of the University of California, priority 2017, dated 2024).
Entries after “also recorded” stand apart in the source; their conditions may differ.

Key:
[1] = biological target: T1, BCL-xL/ABT-263 complex (Homo sapiens, UniProt Q07817); assay: Biolayer interferometry, Fab binding to BCL-xL in the presence of ABT-263; conditions: ABT-263 in place of ABT-737
T1 construct: C-terminally truncated BCL-xL (residues 2-215) with an N-terminal AviTag; made in house; host or cells: E. coli BL21(DE3), pMCSG7 vector
T1 sequence (Q07817 2-215, one chain of several): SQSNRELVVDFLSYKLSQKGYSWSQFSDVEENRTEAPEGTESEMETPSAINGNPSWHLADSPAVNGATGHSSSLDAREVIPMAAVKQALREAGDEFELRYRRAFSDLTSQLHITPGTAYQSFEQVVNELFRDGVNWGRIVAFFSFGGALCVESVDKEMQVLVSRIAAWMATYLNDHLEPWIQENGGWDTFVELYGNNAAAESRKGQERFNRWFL
Procedure: Biolayer interferometery data were measured using an Octet RED384 instrument (ForteBio). Biotinylated BCL-xL was immobilized on a Streptavidin (SA) biosensor using a 200 nM solution. Serial dilutions of Fabs in kinetics buffer (PBS, pH 7.4, 0.05% Tween-20, 0.2% BSA, 10 μM biotin) with small molecule (1 μM), peptide (5 μM), or vehicle (0.05% DMSO) were used as analyte. Affinity (KD) and kinetic parameters (kon and koff) were calculated from a global fit (1:1) of the data using the Octet RED384 software.

[2] = tested on: K562 cells; assay: Cellular toxicity of ABT-737, CellTiter-Glo; format: cell-based; conditions: K562, 24 h, viability relative to DMSO; read-out: IC50 (cell death)
Procedure: (§1) W T Jurkat, AbCID CAR Jurkat, Conventional CAR Jurkat, WT K562, CD19^+ K562, and HEK293T cells were plated in 96-well plates at ˜5000 cells per well. Each cell line was incubated with varying concentrations of ABT-737 (10 μM initial, 3-fold serial-dilutions, 8 times) or DMSO alone (0.1%). After 24 h, cell viability was measured using a CellTiter-Glo® Luminescent Cell Viability Assay (Promega) and the manufacturer's standard protocol. The percent viability relative to DMSO treatment was plotted and analyzed for each cell line using Prism software (GraphPad).

[3] = tested on: Jurkat cells; assay: Cellular toxicity of ABT-737, CellTiter-Glo; format: cell-based; conditions: 24 h, viability relative to DMSO, read-out: IC50 (cell death)
Procedure: as §1

[4] = tested on: HEK293T cells; assay: Cellular toxicity of ABT-737, CellTiter-Glo; format: cell-based; conditions: 24 h, viability relative to DMSO, read-out: IC50 (cell death)
Procedure: as §1

[5] = tested on: platelets; conditions: Zhang et al. 2007; cited from earlier work
[6] = tested on: mice; conditions: mouse, in vivo; cited from earlier work
[7] = tested on: AbCID CAR (BCL-xL) Jurkat NFAT reporter cells co-cultured with K562 target cells; assay: Quantification of CAR T-cell activation (NFAT-GFP, CD69, IL-2); format: cell-based; conditions: for NFAT-dependent GFP reporter expression / IL-2 secretion / CD69 expression: antibody 5 nM, 20 hours
Procedure: Jurkat cells expressing CARs were mixed with antigen positive (CD19^+) or antigen negative (CD19^−) K562 target cells at a ratio of 1:2. […] After overnight incubation at 37° C., cells were pelleted by centrifugation. NFAT-dependent GFP reporter expression was quantified by flow cytometry using a FACSCanto II (BD Biosciences). CD69 expression was quantified by immunofluorescence flow cytometry using a FACSCanto II (BD Biosciences) using an APC anti-human CD69 Antibody (Biolegend 310910). IL-2 secretion was quantified by collection of supernatants and analysis by ELISA using the BD Human IL-2 ELISA set as per manufacturer's protocol. All flow cytometry data analysis was performed using FlowJo software and all plots were generated using Prism software (GraphPad).

[8] = tested on: scAZ1-VPR and dCas9-BCL-xL in reporter HEK293T cell line containing the Gal4-UAS-Fluc operon; assay: CRISPRa-mediated luciferase assay (scAZ1 AbCID gene circuit); format: cell-based
Procedure: For CRISPRa-mediated transcriptional activation, the reporter HEK293T cell line containing the Gal4-UAS-Fluc operon (Collaboration, O. R, Nat. Methods, 13:191-192 (2016)) was seeded at ˜0.5×10^6 cells/well in 6-well plates and cultured under 5% CO2 at 37° C. overnight. The cells were transfected with a plasmid encoding scAZ1-VPR and another plasmid encoding dCas9-BCL-xL and Gal4 sgRNA at a 1:1 ratio. The transfected cells were trypsinized and resuspended in fresh DMEM supplemented with 10% FBS 24 h after transfection. Cells were then aliquoted into a 96-well poly-D-lysine coated plate (Corning) and allowed to adhere for 24 h before 20 nM ABT-737 was added to induce CRISPRa activity. Cells were then further incubated for 48 h before evaluation of luciferase gene expression. To determine luciferase activity, cells were lysed with Bright-Glo Luciferase Assay substrate (Promega) and analyzed using an Infinite M200 PRO plate reader (Tecan). The luciferase activities were background-subtracted with a negative control (cells expressing full-length dCas9-VPR and PHOX2B negative-sgRNA), and normalized against a positive control (cells expressing full-length dCas9-VPR and Gal4 sgRNA). For investigation of cellular dose response, different concentrations of ABT-737 (0.014 nM, 0.041 nM, 0.12 nM, 0.37 nM, 1.1 nM, 3.3 nM, 10 nM, 30 nM, 90 nM, 270 nM) were added to the cells after cells were transfected and aliquoted to a 96-well plate.

[9] = tested on: T cells co-cultured with CD19+ K562 cells; assay: AbCID-regulated inducible bispecific T cell engager, T cell activation; format: cell-based; conditions: for T-cell activation, CD69 expression / T-cell activation, NFAT signaling (GFP expression): antibody conjugated to anti-CD19, Bcl-2 conjugated to anti-CD3, addition of ABT-199
Excerpt: A representative embodiment of an AbCID-regulated inducible bispecific T cell engager is shown in FIG. 19A, having a first AbCID component conjugated to an anti-CD3 antibody and a second AbCID component conjugated to an antibody that recognizes a tumor specific antigen. Administration of the small molecule dimerizer allows for generation of the CID complex, resulting in recruitment of T cells to cancer cells expressing the tumor specific antigen.

## CC1(C)CCC(c2ccc(Cl)cc2)=C(CN2CCN(c3ccc(C(=O)NS(=O)(=O)c4ccc(N[C@H](CCN5CCOCC5)CSc5ccccc5)c(S(=O)(=O)C(F)(F)F)c4)cc3)CC2)C1 [ABT-263]
[1]
  formation of a dimer: does not result in the formation of a dimer

## CN(C)CC[C@H](CSc1ccccc1)Nc1ccc(S(=O)(=O)NC(=O)c2ccc(N3CCN(Cc4ccccc4-c4ccc(Cl)cc4)CC3)cc2)cc1[N+](=O)[O-] [ABT-737]
[2]
  IC50: > 10000 nM
[3]
  IC50: ~2000 nM
[4]
  IC50: ~10000 nM
[5]
  concentration observed to be toxic to platelets: low μM
[6]
  tolerability in mice: generally well tolerated by mice, except for platelet toxicity
[7]
  concentration range used to induce AbCID CAR activity: < 100 nM
[7]; ABT-737 alone
  T-cell activation by ABT-737 on its own: not able to induce T-cell activation on its own
[7]; CD19+ K562 target cells
  NFAT-dependent GFP reporter expression: dose-dependent activation of the NFAT pathway
[7]; CD19+ K562 target cells, ELISA
  IL-2 secretion: dose-dependent secretion of IL-2
[7]; CD19+ K562 target cells, immunofluorescence flow cytometry
  CD69 expression: dose-dependent expression of CD69
[7]; CD19− K562 target cells
  CD69 expression: no expression was observed
  IL-2 secretion: no secretion was observed
  NFAT-dependent GFP reporter expression: not observed; also recorded: no activation was observed
[8]
  concentration range used to induce CRISPRa activity: < 270 nM
[8]; 48-hour induction, AbCID-gated system, read-out: EC50 of induction of luciferase expression
  EC50: 8.9 ± 1 nM
[8]; ABT-737 20 nM, 48 hours, Gal4 sgRNA
  luciferase expression: robust expression of luciferase
[8]; AbCID-gated system with a negative sgRNA
  luciferase expression with a negative sgRNA: no increase in luciferase expression

B1: AZ21: Fab clone selected against Bcl-2 + ABT-199 complex (antibody)
heavy: EISEVQLVESGGGLVQPGGSLRLSCAASGFNLSYSSMHWVRQAPGKGLEWVASISPYSSYTYYADSVKGRFTISADTSKNTAYLQMNSLRAEDTAVYYCARGYWSFYGMDYWGQGTLVTVSSASTKGPSVFPLAPSSKSTSGGTAALGCLVKDYFPEPVTVSWNSGALTSGVHTFPAVLQSSGLYSLSSVVTVPSSSLGTQTYICNVNHKPSNTKVDKKVEPKSCDKTHTGGSHHHHHH
light: SDIQMTQSPSSLSASVGDRVTITCRASQSVSSAVAWYQQKPGKAPKLLIYSASSLYSGVPSRFSGSRSGTDFTLTISSLQPEDFATYYCQQYYAHYLFTFGQGTKVEIKRTVAAPSVFIFPPSDSQLKSGTASVVCLLNNFYPREAKVQWKVDNALQSGNSQESVTEQDSKDSTYSLSSTLTLSKADYEKHKVYACEVTHQGLSSPVTKSFNRGECGGSDYKDDDDK
[9]
  T-cell activation, CD69 expression: increased expression of CD69
  T-cell activation, NFAT signaling (GFP expression): activation of NFAT signaling
[9]; titration of ABT-199
  level of T-cell activation (NFAT activation) versus ABT-199 concentration: tunable by titration of ABT-199 concentration

B2: AZ34: Fab clone selected against Bcl-2 + ABT-199 complex (antibody)
heavy: EISEVQLVESGGGLVQPGGSLRLSCAASGFNIYYSSMHWVRQAPGKGLEWVASISSYSGSTSYADSVKGRFTISADTSKNTAYLQMNSLRAEDTAVYYCARGGWFWGSGGYSSAFDYWGQGTLVTVSSASTKGPSVFPLAPSSKSTSGGTAALGCLVKDYFPEPVTVSWNSGALTSGVHTFPAVLQSSGLYSLSSVVTVPSSSLGTQTYICNVNHKPSNTKVDKKVEPKSCDKTHTGGSHHHHHH
light: SDIQMTQSPSSLSASVGDRVTITCRASQSVSSAVAWYQQKPGKAPKLLIYSASSLYSGVPSRFSGSRSGTDFTLTISSLQPEDFATYYCQQHHSLITFGQGTKVEIKRTVAAPSVFIFPPSDSQLKSGTASVVCLLNNFYPREAKVQWKVDNALQSGNSQESVTEQDSKDSTYSLSSTLTLSKADYEKHKVYACEVTHQGLSSPVTKSFNRGECGGSDYKDDDDK
[9]
  T-cell activation, CD69 expression: increased expression of CD69
  T-cell activation, NFAT signaling (GFP expression): activation of NFAT signaling

B3: AZ35: Fab clone selected against Bcl-2 + ABT-199 complex (antibody)
heavy: EISEVQLVESGGGLVQPGGSLRLSCAASGFNLYYSSIHWVRQAPGKGLEWVAYISSYSGYTYYADSVKGRFTISADTSKNTAYLQMNSLRAEDTAVYYCARGGWYWASGSYYGAMDYWGQGTLVTVSSASTKGPSVFPLAPSSKSTSGGTAALGCLVKDYFPEPVTVSWNSGALTSGVHTFPAVLQSSGLYSLSSVVTVPSSSLGTQTYICNVNHKPSNTKVDKKVEPKSCDKTHTGGSHHHHHH
light: SDIQMTQSPSSLSASVGDRVTITCRASQSVSSAVAWYQQKPGKAPKLLIYSASSLYSGVPSRFSGSRSGTDFTLTISSLQPEDFATYYCQQYGYSVLITFGQGTKVEIKRTVAAPSVFIFPPSDSQLKSGTASVVCLLNNFYPREAKVQWKVDNALQSGNSQESVTEQDSKDSTYSLSSTLTLSKADYEKHKVYACEVTHQGLSSPVTKSFNRGECGGSDYKDDDDK
[9]
  T-cell activation, CD69 expression: increased expression of CD69
  T-cell activation, NFAT signaling (GFP expression): activation of NFAT signaling
